According to patent publication US10888511B2, “Methods and articles of manufacture for the treatment of skin” (Advanced Collagen Science LLC, priority 2013, dated 2021):

Columns and labels:
Processed Human Dermis = test: Acetylation of processed human skin (epithelium removed): mechanical properties; details: 100 mg/mL in dilute alkaline buffer pH 8.5, 1-minute treatment, vs specimen treated with buffer alone
Protocol: Processed human skin was obtained for treatment. The processed skin was comprised of lyophilized dermis. Two samples were tested, two 2 cm×4 cm specimens. One of specimens was treated with 100 mg/mL of glutaric anhydride. The second specimen was treated with buffer solution alone. The rejuvenation agent was prepared in dilute alkaline buffer solution, pH 8.5, quickly dissolved and applied to the dermis within 15 seconds. Prior to treatment with the active agent, skin specimens were pre-treated with buffer alone. Treatments were completed in 1-minute.

Human Skin [1] = test: Acetylation of human skin without dermabrasion, micro-needle roll or penetration enhancers; format: in vivo; details: 20 mg/mL in 0.3M disodium phosphate pH 8.9, 30 seconds to 1 minute, no dermabrasion
Protocol: In this example, the pre-treatment buffer, 0.1M disodium phosphate solution, pH 8.3, was applied for 30 seconds using surgical gauze. Glutaric anhydride (20 mg/mL) was mixed in 0.3M disodium phosphate solution at pH 8.9 and immediately (less than 5 seconds after dissolution) applied to the defects for 30 seconds to 1 minute using surgical gauze. Treatment sites were then rinsed with 0.1M phosphate buffered saline, pH 7.2. No effect on skin thickness or appearance was noted.

Human Skin [2] = test: Acetylation of human skin following dermabrasion (aqueous buffer); format: in vivo; details: 20 mg/mL in 0.3M disodium phosphate pH 8.9, after gentle dermabrasion, temporal defects
Protocol: In this example, glutaric anhydride was applied to temporal defects adjacent to periorbital areas. Skin defects were first subject to gentle dermabrasion followed by application of 0.1M disodium phosphate solution, pH 8.3 for 30 seconds using surgical gauze. Glutaric anhydride (20 mg/mL) was mixed in 0.3M disodium phosphate solution at pH 8.9 and immediately (less than 5 seconds after dissolution) applied to the defects for 30 seconds to 1 minute using surgical gauze. Treatment sites were then rinsed with 0.1M phosphate buffered saline, pH 7.2. Pre-treatment and post-treatment photos were taken and the results evaluated.

[3] = system: Human Skin (Hand and Temple); test: Acetylation of human skin (hand and temple) following dermabrasion, in ethanol or anhydrous alcohol; format: in vivo; details: 50 mg/mL in ethanol or anhydrous alcohol, 1 minute, after dermabrasion, up to 5 treatments
Protocol: (§1) In this example, glutaric anhydride was applied to temporal defects adjacent to periorbital areas. Skin defects were first subject to gentle dermabrasion followed by application of 0.1M disodium phosphate solution, pH 8.3 for 30 seconds using surgical gauze. Glutaric anhydride (50 mg/mL) was dissolved in ethanol or anhydrous alcohol and applied to the defects for 1 minute using surgical gauze. Treatment sites were then rinsed with 0.1M phosphate buffered saline, pH 7.2. Up to 5 treatments were made to specific skin sites.

Human Skin (Temple Area) = test: Acetylation of human skin (temple area) following dermabrasion, in ethanol; format: in vivo; details: 50 mg/mL in ethanol, approximately 0.25 mL aliquots, 1 minute, after dermabrasion, up to 5 treatments
Protocol: as §1, with “ethanol. Aliquots of approximately 0.25 mL were” for “ethanol or anhydrous alcohol and”, “sites” for “sites.”

Human Skin [4] = test: Acetylation of human skin using alcohol penetration enhancer; format: in vivo; details: 50 mg/mL in ethanol, 1 minute, no dermabrasion, up to 5 treatments
Protocol: as §1, with “pretreated” for “first subject to gentle dermabrasion followed”, “ethanol” for “ethanol or anhydrous alcohol”, “sites” for “sites.”

Human Skin [5] = test: Acetylation of human skin using glutaric anhydride powder without dermabrasion; format: in vivo; details: powder (10 mg/mL) applied to wet defects, 1 minute, no dermabrasion, up to 5 treatments
Protocol: In this example, glutaric anhydride was applied to temporal defects adjacent to periorbital areas. Skin defects were pretreated by application of 0.1M disodium phosphate solution, pH 8.3 for 30 seconds using surgical gauze. Glutaric anhydride powder (10 mg/mL) was gently applied to the wet defects for 1 minute, or until the powder dissolved, using surgical gauze. The powder Treatment sites were then rinsed with 0.1M phosphate buffered saline, pH 7.2. Up to 5 treatments were made to specific skin sites

Human Skin [6] = test: Acetylation of human skin using glutaric anhydride in vegetable oil without dermabrasion; format: in vivo; details: 30 mg/mL dispersed in vegetable oil, 1 minute, one treatment, no dermabrasion
Protocol: (§2) In this example, glutaric anhydride was applied to temporal defects adjacent to periorbital areas. Skin defects were pretreated by application of 0.1M disodium phosphate solution, pH 8.3 for 30 seconds using surgical gauze. Glutaric anhydride powder (30 mg/mL) was dispersed in vegetable oil and gently applied to the wet defects for 1 minute using surgical gauze. The treatment sites were then rinsed with 0.1M phosphate buffered saline, pH 7.2. Only one treatment was made to temporal skin sites.

Human Skin [7] = test: Acetylation of human skin using glutaric anhydride in pH adjusted vegetable oil without dermabrasion; format: in vivo; details: 30 mg/mL dispersed in vegetable oil adjusted to pH 9.0, 1 minute, one treatment, no dermabrasion
Protocol: as §2, with “oil adjusted to a pH of 9.0 using 10N NaOH” for “oil”

Human Skin [8] = test: Acetylation of human skin using glutaric anhydride in pH adjusted vegetable oil following micro-needle roller treatment; format: in vivo; details: 40 mg/mL in vegetable oil adjusted to pH 9.1, forearm, 1 minute
Protocol: In this example, glutaric anhydride was applied to the forearm. A skin area approximately 4 mm×4 mm was punctured using a micro-needle roller, followed by pretreated with 0.1M disodium phosphate solution, pH 8.3 for 30 seconds using cotton swab. Glutaric anhydride powder (40 mg/mL) was dispersed in vegetable oil that was adjusted to a pH of 9.1 using granules of sodium hydroxide powder and gently applied to the pre-treated skin area for 1 minute using a cotton swab. The sites were rinsed using an alcohol swab.

Human Skin [9] = test: Acetylation of human skin using glutaric anhydride in alkaline buffer solution following micro-needle roller treatment; format: in vivo; details: 40 mg/mL in 0.3M disodium phosphate pH 9.1, forearm
Protocol: In this example, glutaric anhydride was applied to the forearm. A skin area approximately 4 mm×4 mm was punctured using a micro-needle roller, followed by pretreated with 0.1M sodium phosphate buffer, pH 8.3 for 30 seconds using cotton swab. Glutaric anhydride powder (40 mg/mL) was dissolved in 0.3M disodium phosphate solution, pH 9.1 and gently applied to the pre-treated skin area for 1 minute using a cotton swab. The sites were final rinsed using an alcohol swab.

Human Skin [10] = test: Acetylation of human skin using glutaric anhydride in alkaline EDTA solution following pretreatment with alkaline EDTA solution; format: in vivo; details: powder on gauze flushed with 0.035M disodium EDTA pH 9.0, upper cheek
Source text: In this example, glutaric anhydride was applied to the cheek. An area of the upper cheek, below the eye, was pretreated with pH adjusted 0.035M disodium EDTA (pH 9.0) applied using a gauze pad. Glutaric anhydride powder was finely ground using a mortar and pestle and rubbed into a second gauze pad. The gauze was placed on the treatment area and flushed with pH adjusted 0.035M disodium EDTA (pH 9.0) to deliver the glutaric anhydride to the treatment site as it dissolved in the EDTA solution. […] Two such applications were performed.

[11] = after micro-needle roller, 1 minute

Structure (SMILES): O=C1CCCC(=O)O1 [glutaric anhydride]
- Durometer, Change (increase) (Processed Human Dermis): 5.3% increase
- Low Chord Modulus, Change (decrease) (Processed Human Dermis): 50.5% decrease
- Thickness, Change (increase) (Processed Human Dermis): 18.3% increase
- Water Retention, Change (increase) (Processed Human Dermis): 66.8% increase
- Effect on skin thickness or appearance (Human Skin [1]): No effect
- Appearance of skin defects (Human Skin [2]): improvement
- Skin appearance (visual) [3]: visual improvement
- Skin thickness at the treatment sites (tactile) [3]: tactile increase
- Skin smoothness (visual) (Human Skin (Temple Area)): visual improvement
- Skin thickness at the treatment sites (tactile) (Human Skin (Temple Area)): tactile increase
- Skin smoothness (visual) (Human Skin [4]): minor visual improvement
- Skin thickness at the treatment sites (tactile) (Human Skin [4]): tactile increase
- Skin smoothness (visual) (Human Skin [5]): No visual improvement
- Tactile increase in skin at the treatment sites (Human Skin [5]): a tactile increase in skin as observed
- Feel of application sites (Human Skin [6]): thicker and softer
- Sensation at treated sites immediately after treatment and for sometime after (Human Skin [6]): mild tingly feeling
- Skin smoothness (visual) (Human Skin [6]): minor visual improvement
- Skin thickness at the treatment sites (tactile) (Human Skin [6]): tactile increase
- Feel of application sites (Human Skin [7]): thicker and softer
- Sensation at treated sites immediately after treatment and for sometime after (Human Skin [7]): mild tingly feeling
- Skin smoothness (visual) (Human Skin [7]): visual improvement
- Skin thickness at the treatment sites (tactile) (Human Skin [7]): tactile increase
- Sensation at treated sites immediately after treatment and for sometime after (Human Skin [8]): mild tingly feeling
- Color of treated sites (Human Skin [8]; after micro-needle roller): slightly red
- Feel of application site (Human Skin [8]; after micro-needle roller): felt thicker immediately after treatment and for several days later
- Skin thickness at the treatment sites (tactile) (Human Skin [8]; after micro-needle roller): tactile increase
- Sensation at treated sites immediately after treatment (Human Skin [9]; 1 minute): mild tingly feeling
- Color of treated sites (Human Skin [9]; [11]): slightly red
- Feel of application site (Human Skin [9]; [11]): felt slightly thicker immediately after treatment only
- Effect of repeated treatments on skin appearance (Human Skin [9]; after micro-needle roller, repeated treatments): appeared to enhance beneficial results
- Sensation as the glutaric anhydride penetrated the skin (Human Skin [10]): slight burning or tingly sensation
- Redness at the treatment site (Human Skin [10]; after gauze removed and site flushed): Some redness
- Persistence of skin thickening (Human Skin [10]; after the second application): more than 2 weeks
- Skin thickening at the treatment site (Human Skin [10]; after the second application): obvious minor skin thickening
